The text below walks through data of US7247634B2, “Rifamycin derivatives effective against drug-resistant microbes” (Cumbre Pharmaceuticals Inc., priority 2004, dated 2007).

In brackets after ≈: the same amount, converted by molar mass.

What all share (format): cell-based
Assay [1] relates to Streptococcus pyogenes ATCC19615. Put plainly: MIC, microbroth dilution (NCCLS). The settings on record: rifS strain, THY Broth, 37° C., read-out: Antimicrobial activity (MIC).
For assay [2], the system named is Escherichia coli ATCC25922. Put plainly: MIC, microbroth dilution (NCCLS). The settings on record: rifS strain, Cation-Adjusted Mueller-Hinton Broth, 37° C., read-out: Antimicrobial activity (MIC). Background: Broth dilution looks for growth in wells or tubes with falling amounts of substance.
Assay [3] concerns Staphylococcus epidermidis ATCC12228. Put plainly: MIC, microbroth dilution (NCCLS). The settings on record: rifS strain, Cation-Adjusted Mueller-Hinton Broth, 37° C., read-out: Antimicrobial activity (MIC).
The test system of assay [4] is Haemophilus influenzae ATCC10211. As to the kind of experiment: MIC, microbroth dilution (NCCLS). The settings on record: rifS strain, BHI Broth with NAD and hematin, 37° C., read-out: Antimicrobial activity (MIC).
Assay [5] deals with Staphylococcus aureus EN1252a gyrA^S84L grlA^S80F. As to the kind of experiment: microbe, parasite or virus in culture. The settings on record: read-out: Antimicrobial activity (MIC). On the procedure:
(§1) Representative compounds were assayed for antimicrobial activity as follows: Minimum Inhibitory Concentrations (“MICs”) were determined by the microbroth dilution method as per NCCLS guidelines (National Committee for Clinical Laboratory Standards. 2000. Methods for dilution antimicrobial susceptibility tests for bacteria that grow aerobically, 5th ed. M7-A5. National Committee for Clinical Laboratory Standards, Wayne, Pa.), except that all growth incubations were conducted at 37° C. Bacterial cultures were tested in the following bacteriological media: S. aureus, S. epidermidis, and E. coli in Cation-Adjusted Mueller-Hinton Broth, S. pneumoniae in THY Broth supplemented with 1 mg/mL catalase under 5% CO2 atmosphere, S. pyogenes in THY Broth, E. faecalis in BHI Broth, H. influenzae in BHI Broth supplemented with 0.75 μL of 1 mg/mL NAD and 150 μL of 1 mg/ml hematin per 5 mL, and M. smegmatis in Middlebrook Broth plus ADC Enrichment.
(§2) S. aureus ATCC 29213 RpoB^H418Y is a rifampin-resistant strain with a mutation in RNA polymerase, the biological target of rifamycin antibiotics. […] S. aureus EN1252a gyrA^S84L grlA^S80F is a quinolone-resistant strain due to double mutations to DNA gyrase and topoisomerase IV, the two biological targets for quinolone antibiotics.

Assay [6] has as its system Staphylococcus aureus ATCC29213 rpoB^H418Y. As to the kind of experiment: microbe, parasite or virus in culture. The settings on record: ATCC29213, read-out: Antimicrobial activity (MIC). On the procedure: as §1, §2
Assay [7] concerns Staphylococcus aureus ATCC29213 rpoB^D417Y. As to the kind of experiment: microbe, parasite or virus in culture. The note with it: ATCC29213, read-out: Antimicrobial activity (MIC). On the procedure: as §1, §2
Assay [8] concerns Mycobacterium smegmatis ATCC700084. As to the kind of experiment: MIC, microbroth dilution (NCCLS). The note with it: Mycolicibacterium smegmatis, rifS strain, Middlebrook Broth plus ADC Enrichment, 37° C., read-out: Antimicrobial activity (MIC).
Assay [9] has as its system Enterococcus faecalis ATCC29212. Put plainly: MIC, microbroth dilution (NCCLS). The settings on record: rifS strain, BHI Broth, 37° C., read-out: Antimicrobial activity (MIC).
Assay [10] deals with Streptococcus pneumoniae ATCC6303. As to the kind of experiment: MIC, microbroth dilution (NCCLS). The note with it: rifS strain, THY Broth with 1 mg/mL catalase, 5% CO2, 37° C., read-out: Antimicrobial activity (MIC).
Assay [11] relates to Staphylococcus aureus ATCC29213. As to the kind of experiment: MIC, microbroth dilution (NCCLS). The settings on record: rifS strain, Cation-Adjusted Mueller-Hinton Broth, 37° C., read-out: Antimicrobial activity (MIC).

As for `CO[C@H]1/C=C/O[C@@]2(C)Oc3c(C)c(O)c4c(c3C2=O)C(=O)C(N2CCN(C3CCN(c5nc6c(cc5F)c(=O)c(C(=O)O)cn6-c5ccc(F)cc5F)C3)CC2)=C(NC(=O)/C(C)=C\C=C\[C@H](C)[C@H](O)[C@@H](C)[C@@H](O)[C@@H](C)[C@H](OC(C)=O)[C@@H]1C)C4=O` (mixture of isomers) [Example 54], the MIC in assay [1] fell in the range of 0.008 to 0.063 µg/mL (≈ 0.00685 to 0.054 µM); in [2], 0.125 to 8 µg/mL (≈ 0.107 to 6.85 µM); in [3] it was 0.008 to 0.063 µg/mL (≈ 0.00685 to 0.054 µM); in assay [4], 0.125 to 2 µg/mL (≈ 0.107 to 1.71 µM); in assay [5], 0.004 to 0.5 µg/mL (≈ 0.00343 to 0.428 µM); in assay [6], 0.06 to 16 µg/mL (≈ 0.0514 to 13.7 µM). The MIC lay in the range of 0.06 to 32 µg/mL (≈ 0.0514 to 27.4 µM) in assay [7]; 0.5 to 64 µg/mL in assay [8]; 2 to 32 µg/mL (≈ 1.71 to 27.4 µM) in assay [9]; 0.008 to 0.125 µg/mL (≈ 0.00685 to 0.107 µM) in assay [10]; 0.004 to 0.5 µg/mL (≈ 0.00343 to 0.428 µM) in assay [11].

For the molecule `COc1c(N2CCC(C3(N4CCN(C5=C6NC(=O)/C(C)=C\C=C\[C@H](C)[C@H](O)[C@@H](C)[C@@H](O)[C@@H](C)[C@H](OC(C)=O)[C@H](C)[C@@H](OC)/C=C/O[C@@]7(C)Oc8c(C)c(O)c(c(c8C7=O)C5=O)C6=O)CC4)CC3)C2)c(F)cc2c(=O)c(C(=O)O)cn(C3CC3)c12` (mixture of isomers) [Example 56, (R/S)-3-{4-[1-(3-Carboxy-1-cyclopropyl-6-fluoro-8-methoxy-4-oxo-1,4-dihydroquinoline-7-yl)-pyrrolidin-3-yl-cyclopropyl]-piperazin-1-yl}-rifamycin S], the MIC in assay [1] is 0.008 to 0.063 µg/mL (≈ 0.00687 to 0.0541 µM); in [2], 0.125 to 8 µg/mL (≈ 0.107 to 6.87 µM); in assay [3] it was 0.008 to 0.063 µg/mL (≈ 0.00687 to 0.0541 µM); in assay [4], 0.125 to 2 µg/mL (≈ 0.107 to 1.72 µM); in [5], 0.004 to 0.5 µg/mL (≈ 0.00344 to 0.429 µM); in assay [6], 0.06 to 16 µg/mL (≈ 0.0515 to 13.7 µM). The MIC in assay [7] is 0.06 to 32 µg/mL (≈ 0.0515 to 27.5 µM); in assay [8] it was 0.5 to 64 µg/mL; in assay [9], 2 to 32 µg/mL (≈ 1.72 to 27.5 µM); in [10], 0.008 to 0.125 µg/mL (≈ 0.00687 to 0.107 µM); in assay [11] it was 0.004 to 0.5 µg/mL (≈ 0.00344 to 0.429 µM).

Turning to `CO[C@H]1/C=C/O[C@@]2(C)Oc3c(C)c(O)c4c(c3C2=O)C(=O)C(N2CCC(N(C)C3(C5CCN(c6nc7c(cc6F)c(=O)c(C(=O)O)cn7-c6ccc(F)cc6F)C5)CC3)CC2)=C(NC(=O)/C(C)=C\C=C\[C@H](C)[C@H](O)[C@@H](C)[C@@H](O)[C@@H](C)[C@H](OC(C)=O)[C@@H]1C)C4=O` (mixture of isomers) [Example 58], the MIC in [1] fell in the range of 0.008 to 0.063 µg/mL (≈ 0.00648 to 0.051 µM); in assay [2] it was 0.125 to 8 µg/mL (≈ 0.101 to 6.48 µM); in assay [3], 0.008 to 0.063 µg/mL (≈ 0.00648 to 0.051 µM); in [4] it was 0.125 to 2 µg/mL (≈ 0.101 to 1.62 µM); in assay [5], 0.004 to 0.5 µg/mL (≈ 0.00324 to 0.405 µM); in assay [6], 0.06 to 16 µg/mL (≈ 0.0486 to 13 µM). The MIC is 0.06 to 32 µg/mL (≈ 0.0486 to 25.9 µM) in assay [7]; 0.5 to 64 µg/mL in [8]; 2 to 32 µg/mL (≈ 1.62 to 25.9 µM) in assay [9]; 0.008 to 0.125 µg/mL (≈ 0.00648 to 0.101 µM) in assay [10]; 0.004 to 0.5 µg/mL (≈ 0.00324 to 0.405 µM) in [11].

Regarding `CON=C1CN(c2nc3c(cc2F)c(=O)c(C(=O)O)cn3C2CC2)CC1CNC1CCN(C2=C3NC(=O)/C(C)=C\C=C\[C@H](C)[C@H](O)[C@@H](C)[C@@H](O)[C@@H](C)[C@H](OC(C)=O)[C@H](C)[C@@H](OC)/C=C/O[C@@]4(C)Oc5c(C)c(O)c(c(c5C4=O)C2=O)C3=O)CC1` (mixture of isomers) [Example 59, (R/S)-3-{4-[1-(3-Carboxy-1-cyclopropyl-6-fluoro-4-oxo-1,4-dihydro-1-[1,8]naphthyridine-7-yl)-3-methoxyiminopyrrolidin-4-ylmethylamino]-piperidin-1-yl}rifamycin S], the MIC is 0.008 to 0.063 µg/mL (≈ 0.00686 to 0.054 µM) in assay [1]; 0.125 to 8 µg/mL (≈ 0.107 to 6.86 µM) in assay [2]; 0.008 to 0.063 µg/mL (≈ 0.00686 to 0.054 µM) in [3]; 0.125 to 2 µg/mL (≈ 0.107 to 1.71 µM) in [4]; 0.004 to 0.5 µg/mL (≈ 0.00343 to 0.429 µM) in assay [5]; 0.06 to 16 µg/mL (≈ 0.0514 to 13.7 µM) in assay [6]. Also, the MIC lay within 0.06 to 32 µg/mL (≈ 0.0514 to 27.4 µM) in assay [7]; 0.5 to 64 µg/mL in assay [8]; 2 to 32 µg/mL (≈ 1.71 to 27.4 µM) in [9]; 0.008 to 0.125 µg/mL (≈ 0.00686 to 0.107 µM) in assay [10]; 0.004 to 0.5 µg/mL (≈ 0.00343 to 0.429 µM) in [11].
